Assay results taken from ChEMBL document CHEMBL1201862, “PubChem BioAssay data set” (2004).
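Step 1: Grow cells in 96-well plates. Step 2: Expose to compound for 48 hours at 5 concentrations. Step 3: Interpolate endpoints linearly; if unreached, use highest concentration. GI50 is the concentration that inhibits growth by half.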 Calls of active or inactive are those of the source. Rule as the data show it: active = GI50 up to about 1.1 µM and inactive = higher.

What was measured:
Experiment in all cases: NCI anticancer screen, dose series, 48 h
786-0 = test system: 786-0
A498 = test system: A498
A549 = test system: A549
ACHN = test system: ACHN
CAKI-1 = test system: CAKI-1
CCRF-CEM = test system: CCRF-CEM
COLO 205 = test system: COLO 205
DLD-1 = test system: DLD-1
DMS-114 = test system: DMS-114
DMS-273 = test system: DMS-273
EKVX = test system: EKVX
HCC 2998 = test system: HCC 2998
HCT-116 = test system: HCT-116
HCT-15 = test system: HCT-15
HL-60 = test system: HL-60
HOP-62 = test system: HOP-62
HOP-92 = test system: HOP-92
HT-29 = test system: HT-29
IGROV-1 = test system: IGROV-1
K562 = test system: K562
KM-20L2 = test system: KM-20L2
KM12 = test system: KM12
LOX IMVI = test system: LOX IMVI
LXFL 529 = test system: LXFL 529
M14 = test system: M14
M19-MEL = test system: M19-MEL
MOLT-4 = test system: MOLT-4
Malme-3M = test system: Malme-3M
NCI-H226 = test system: NCI-H226
NCI-H23 = test system: NCI-H23
NCI-H460 = test system: NCI-H460
NCI-H522 = test system: NCI-H522
OVCAR-3 = test system: OVCAR-3
OVCAR-4 = test system: OVCAR-4
OVCAR-5 = test system: OVCAR-5
RPMI-8226 = test system: RPMI-8226
RXF 393 = test system: RXF 393
SF-268 = test system: SF-268
SF-295 = test system: SF-295
SF-539 = test system: SF-539
SK-MEL-28 = test system: SK-MEL-28
SK-MEL-2 = test system: SK-MEL-2
SK-MEL-5 = test system: SK-MEL-5
SK-OV-3 = test system: SK-OV-3
SN12C = test system: SN12C
SNB-19 = test system: SNB-19
SNB-75 = test system: SNB-75
SNB-78 = test system: SNB-78
SR = test system: SR
SW-620 = test system: SW-620
TK-10 = test system: TK-10
U-251 = test system: U-251
UO-31 = test system: UO-31
XF498 = test system: XF498

In the case of Fc1nc(F)nc(-c2c3ccccc3c3n2CCS3)n1, the GI50 (786-0) is reported as 78.5 µM (inactive), the GI50 (A498) is reported as 30.8 µM (inactive) and the GI50 (A549) is reported as > 100 µM (inactive). For the same compound, the GI50 (ACHN) was > 100 µM (inactive), the GI50 (CAKI-1) was > 100 µM (inactive) and the GI50 (CCRF-CEM) was 33.1 µM (inactive). For the same compound, the GI50 (COLO 205) was > 100 µM (inactive), the GI50 (DLD-1) was 57.8 µM (inactive) and the GI50 (DMS-114) was > 100 µM (inactive). For the same compound, the GI50 (DMS-273) was 76.2 µM (inactive), the GI50 (EKVX) was > 100 µM (inactive) and the GI50 (HCC 2998) was > 100 µM (inactive). The GI50 (HCT-116) was 65.5 µM (inactive), the GI50 (HCT-15) was 54.8 µM and the GI50 (HL-60) was 46.8 µM (inactive). For the same compound, the GI50 (HOP-62) was 39.7 µM (inactive), the GI50 (HOP-92) was 39.4 µM (inactive) and the GI50 (HT-29) was > 100 µM (inactive). The GI50 (IGROV-1) was > 100 µM (inactive), the GI50 (K562) was 47.5 µM (inactive) and the GI50 (KM-20L2) was > 100 µM (inactive). The GI50 (KM12) was 47 µM (inactive), the GI50 (LOX IMVI) was 61.4 µM (inactive) and the GI50 (LXFL 529) was 58.1 µM (inactive). For the same compound, the GI50 (M14) was 71.1 µM (inactive), the GI50 (M19-MEL) was > 100 µM (inactive) and the GI50 (MOLT-4) was > 10 µM (inactive). For the same compound, the GI50 (Malme-3M) was > 100 µM (inactive), the GI50 (NCI-H226) was > 100 µM (inactive) and the GI50 (NCI-H23) was > 100 µM (inactive). For the same compound, the GI50 (NCI-H460) was 61.4 µM (inactive), the GI50 (NCI-H522) was 47.2 µM (inactive) and the GI50 (OVCAR-3) was > 100 µM (inactive). The GI50 (OVCAR-4) was 98.9 µM (inactive), the GI50 (OVCAR-5) was > 100 µM (inactive) and the GI50 (RPMI-8226) was 33 µM (inactive). For the same compound, the GI50 (RXF 393) was 91.2 µM (inactive), the GI50 (SF-268) was 70.5 µM (inactive) and the GI50 (SF-295) was 53.3 µM (inactive). The GI50 (SF-539) was > 100 µM (inactive), the GI50 (SK-MEL-28) was > 100 µM (inactive) and the GI50 (SK-MEL-2) was 44.5 µM (inactive). The GI50 (SK-MEL-5) was 50.1 µM (inactive), the GI50 (SK-OV-3) was > 100 µM (inactive) and the GI50 (SN12C) was > 100 µM (inactive). The GI50 (SNB-19) was > 100 µM (inactive), the GI50 (SNB-75) was 22.8 µM (inactive) and the GI50 (SNB-78) was 23 µM (inactive). The GI50 (SR) was 37 µM (inactive), the GI50 (SW-620) was > 100 µM (inactive) and the GI50 (TK-10) was > 10 µM (inactive). For the same compound, the GI50 (U-251) was 29 µM (inactive), the GI50 (UO-31) was 84.5 µM (inactive) and the GI50 (XF498) was 23.4 µM (inactive).
